# Results: paper PMC9124820, “In vitro evaluation of fenfluramine and norfenfluramine as victims of drug interactions” (Pharmacology Research & Perspectives, 2022)
# How the values were obtained:
# [1] = Metabolic stability and metabolite identity, dog liver S9 fractions; type: in vitro ADME; settings: pH 7.4; 1 µM FFA, dog liver S9 fractions 2 mg protein/mL
# Description: (§1) LC‐MS/MS analyses to assess metabolic stability and identify the transporter substrate were performed using an API 4000 QTRAP mass spectrometer (SCIEX, Framingham, MA) with electrospray ionization in positive mode. Chromatography was performed using an Atlantis dC18 analytical column (100 × 2.1 mm, 5 µm; Waters Corporation, Milford, MA). Mobile phases were 0.2% v/v formic acid in water and 0.2% v/v formic acid in acetonitrile. For metabolic stability experiments, FFA and metabolites were eluted at a flow rate of 0.6 mL/min, with a linear gradient of 20%−80% acetonitrile from 0.30−2.0 min. […] The mass transitions monitored were 232.0 > 159.0 for FFA and 348.0 > 330.0 for 1ʹ‐OH‐midazolam‐d4 internal standard. […]
# (§2) FFA (1 or 10 µM) was incubated with liver and intestinal S9 fractions (2 mg protein/mL) at 37 ± 1°C in 0.2‐mL incubation mixtures containing potassium phosphate buffer (50 mM, pH 7.4), magnesium chloride (MgCl2) (3 mM), and EDTA (1 mM, pH 7.4), in the presence or absence of a three‐component cofactor mixture (NADPH‐generating system, uridine diphosphate glucuronic acid (UDPGA) [8 mM], and 3’‐phosphoadenosine 5’‐phosphosulfate [0.5 mM]). […] Supernatant fractions were analyzed by LC‐MS/MS.
# (§3) To characterize substrate loss and metabolic stability, duplicate samples were analyzed by LC‐MS/MS to determine the change in substrate concentration over the incubation period. […]
# [2] = Metabolic stability and metabolite identity, human intestinal S9 fractions; type: in vitro ADME; settings: pH 7.4, 1 µM FFA, human intestine S9 fractions, outside assay detection limits
# Description: as §1, §2, §3
compound,measurement,setting,value
"CCNC(C)Cc1cccc(C(F)(F)F)c1 (racemic) [FFA, (RS)‐ethyl (α‐methyl‐3‐trifluoromethylphenethyl)amine]",half-life at 1 µM,[1],30 min
same,microsomal CLint at 1 µM,[1],11.6 µL/min/mg
same,half-life at 1 µM,[2],> 120 min
same,microsomal CLint at 1 µM,[2],< 2.9 µL/min/mg
